The text below walks through data of patent US8133847B2, “Pyrido[2,3-B]pyrazine derivatives useful as herbicidal compounds” (Syngenta Limited, priority 2006, dated 2012).

The structures appear in SMILES notation.

Experiment in all cases: Example B1 herbicidal action, post-emergence, 96-cell seed trays, climatic chamber
Type in all cases: in vivo

In assay [1] the test system is Amaranthus retroflexus (AMARE). The conditions noted are these: Application post-emergence, 1000 mg/l spray equivalent to 1000 g/ha, evaluated after 9 days. How it is done:
(§1) Seeds of a variety of test species were sown in sterilised standard soil in seed trays each having 96 cells. After cultivation for 8 to 9 days cultivation (post-emergence) under controlled conditions in a climatic chamber (cultivation at 23/17° C., day/night; 13 hours light; 50-60% humidity), the plants were treated with an aqueous spray solution of 1000 mg/l of the active ingredient dissolved in 10% DMSO (dimethyl sulfoxide, CAS RN 67-68-5) as a solvent, equivalent to 1000 g/ha. The plants were grown in the climatic chamber after application at (24/19° C., day/night; 13 hours light; 50-60% humidity) and watered twice daily. After 9 days until the test was evaluated (100=total damage to plant, 0=no damage to plant)

The subject of the next assay is Stellaria media (STEME). The conditions noted are these: Application post-emergence, 1000 mg/l spray equivalent to 1000 g/ha, evaluated after 9 days (100=total damage to plant, 0=no damage to plant). How it is done: as §1
For a further assay, the system named is Solanum nigrum (SOLNI). The conditions noted are these: Application post-emergence, 1000 mg/l spray equivalent to 1000 g/ha, evaluated after 9 days (100=total damage to plant, 0=no damage to plant). How it is done: as §1
Assay [2] deals with Nasturtium officinale (NAAOF). More on the design: scale not given here. The conditions noted are these: Application post-emergence, 1000 mg/l spray equivalent to 1000 g/ha, evaluated after 9 days (100=total damage to plant, 0=no damage to plant). How it is done:
as §1

`O=c1[nH]c2nccnc2c(O)c1-c1ccc(Cl)cc1Cl` [Compound A1]: the “damage to plant, Amaranthus retroflexus (AMARE)” value (“damage to plant … (AMARE)” below) in assay [1] was 0. The “damage to plant, Stellaria media (STEME)” value in the assay with Stellaria media (STEME) stood at 7. Also, the “damage to plant, Solanum nigrum (SOLNI)” value with Solanum nigrum (SOLNI) came out at 0. Also, the “damage to plant, Nasturtium officinale (NAAOF)” value (from here on “damage to plant … (NAAOF)”) in assay [2] is given as 5.

On to `O=c1[nH]c2nccnc2c(O)c1-c1ccccc1Cl` [Compound A2], for which the “damage to plant … (AMARE)” value in assay [1] is given as 6. Moreover, in the assay on Stellaria media (STEME), the “damage to plant, Stellaria media (STEME)” value turned out to be 2. Moreover, the “damage to plant, Solanum nigrum (SOLNI)” value in the assay with Solanum nigrum (SOLNI) was found to be 0. Further, the “damage to plant … (NAAOF)” value in assay [2] is recorded as 2.

Turning to `O=c1[nH]c2nccnc2c(O)c1-c1cc(Cl)ccc1Cl` [Compound A3], in assay [1], the “damage to plant … (AMARE)” value worked out at 8. Further, the “damage to plant, Stellaria media (STEME)” value with Stellaria media (STEME) came to 3. For the same molecule, the “damage to plant, Solanum nigrum (SOLNI)” value in the assay with Solanum nigrum (SOLNI) stood at 0. Moreover, the “damage to plant … (NAAOF)” value in assay [2] worked out at 4.

Regarding `O=c1[nH]c2nccnc2c(O)c1-c1cccc(Cl)c1Cl` [Compound A4], the “damage to plant … (AMARE)” value in assay [1] is given as 5. Besides, the “damage to plant, Stellaria media (STEME)” value in the assay on Stellaria media (STEME) was determined as 1. Also, the “damage to plant, Solanum nigrum (SOLNI)” value with Solanum nigrum (SOLNI) amounted to 2. In addition, the “damage to plant … (NAAOF)” value in assay [2] was found to be 2.

On to `O=c1[nH]c2nccnc2c(O)c1-c1c(Cl)cccc1Cl` [Compound A5], for which the “damage to plant … (AMARE)” value in assay [1] is given as 3. Also, in the assay with Stellaria media (STEME), the “damage to plant, Stellaria media (STEME)” value stood at 3. Besides, the “damage to plant, Solanum nigrum (SOLNI)” value in the assay with Solanum nigrum (SOLNI) turned out to be 3. For the same molecule, the “damage to plant … (NAAOF)” value in assay [2] came to 6.

`Cc1ccccc1-c1c(O)c2nccnc2[nH]c1=O` [Compound A6]: the “damage to plant … (AMARE)” value in assay [1] stood at 0. Besides, the “damage to plant, Stellaria media (STEME)” value in the assay on Stellaria media (STEME) is given as 0. Moreover, the “damage to plant, Solanum nigrum (SOLNI)” value with Solanum nigrum (SOLNI) was 5. Besides, in assay [2], the “damage to plant … (NAAOF)” value is 0.

For the molecule `O=c1[nH]c2nccnc2c(O)c1-c1ccccc1C(F)(F)F` [Compound A8], the “damage to plant … (AMARE)” value in assay [1] was 5. The “damage to plant, Stellaria media (STEME)” value in the assay on Stellaria media (STEME) stood at 2. Further, the “damage to plant, Solanum nigrum (SOLNI)” value in the assay on Solanum nigrum (SOLNI) is reported as 0. In assay [2], the “damage to plant … (NAAOF)” value is given as 7.

Consider `COc1c(Cl)cc(Cl)cc1-c1c(O)c2nccnc2[nH]c1=O` [Compound A9], for which the “damage to plant … (AMARE)” value in assay [1] is on record as 7. Further, in the assay with Stellaria media (STEME), the “damage to plant, Stellaria media (STEME)” value is reported as 8. The “damage to plant, Solanum nigrum (SOLNI)” value in the assay with Solanum nigrum (SOLNI) is given as 4. The “damage to plant … (NAAOF)” value in assay [2] was 3.

As to `O=c1[nH]c2nccnc2c(O)c1-c1ccc(F)cc1Cl` [Compound A10], the “damage to plant … (AMARE)” value in assay [1] was determined as 9. Moreover, in the assay on Stellaria media (STEME), the “damage to plant, Stellaria media (STEME)” value stood at 2. Further, the “damage to plant, Solanum nigrum (SOLNI)” value in the assay on Solanum nigrum (SOLNI) is given as 0. In addition, the “damage to plant … (NAAOF)” value in assay [2] is on record as 2.

As for `O=c1[nH]c2nccnc2c(O)c1-c1ccccc1OC(F)(F)F` [Compound A13], the “damage to plant … (AMARE)” value in assay [1] turned out to be 5. The “damage to plant, Stellaria media (STEME)” value in the assay with Stellaria media (STEME) worked out at 3. The “damage to plant, Solanum nigrum (SOLNI)” value in the assay on Solanum nigrum (SOLNI) stood at 0. For the same molecule, the “damage to plant … (NAAOF)” value in assay [2] is 0.

`O=c1[nH]c2nccnc2c(O)c1-c1c(Cl)cc(C(F)(F)F)cc1Cl` [Compound A14]: the “damage to plant … (AMARE)” value in assay [1] came to 6. Further, the “damage to plant, Stellaria media (STEME)” value in the assay with Stellaria media (STEME) was determined as 7. The “damage to plant, Solanum nigrum (SOLNI)” value with Solanum nigrum (SOLNI) is 0. Moreover, the “damage to plant … (NAAOF)” value in assay [2] is on record as 7.

Take `O=c1[nH]c2nccnc2c(O)c1-c1ccccc1F` [Compound A15]: in assay [1], the “damage to plant … (AMARE)” value is on record as 0. In addition, the “damage to plant, Stellaria media (STEME)” value in the assay with Stellaria media (STEME) came to 0. For the same molecule, in the assay on Solanum nigrum (SOLNI), the “damage to plant, Solanum nigrum (SOLNI)” value is 0. The “damage to plant … (NAAOF)” value in assay [2] was 2.

For the molecule `O=c1[nH]c2nccnc2c(O)c1-c1ccc(F)cc1C(F)(F)F` [Compound A17], in assay [1], the “damage to plant … (AMARE)” value was 8. Besides, the “damage to plant, Stellaria media (STEME)” value in the assay on Stellaria media (STEME) stood at 5. Besides, the “damage to plant, Solanum nigrum (SOLNI)” value with Solanum nigrum (SOLNI) is given as 5. Moreover, the “damage to plant … (NAAOF)” value in assay [2] amounted to 7.

Turning to `O=c1[nH]c2nccnc2c(O)c1-c1ccc(F)cc1Br` [Compound A18], the “damage to plant … (AMARE)” value in assay [1] was 6. Besides, the “damage to plant, Stellaria media (STEME)” value with Stellaria media (STEME) was found to be 4. The “damage to plant, Solanum nigrum (SOLNI)” value in the assay with Solanum nigrum (SOLNI) was 6. Moreover, in assay [2], the “damage to plant … (NAAOF)” value was determined as 9.

For `O=c1[nH]c2nccnc2c(O)c1-c1cc(Cl)ccc1C(F)(F)F` [Compound A19], the “damage to plant … (AMARE)” value in assay [1] was determined as 6. Further, the “damage to plant, Stellaria media (STEME)” value with Stellaria media (STEME) came to 5. The “damage to plant, Solanum nigrum (SOLNI)” value in the assay on Solanum nigrum (SOLNI) is given as 7. Moreover, the “damage to plant … (NAAOF)” value in assay [2] is reported as 5.

On to `COc1ccc(-c2c(O)c3nccnc3[nH]c2=O)c(OC)c1` [Compound A20], for which the “damage to plant, Stellaria media (STEME)” value in the assay with Stellaria media (STEME) is reported as 0. Also, in assay [2], the “damage to plant … (NAAOF)” value is listed as 2.

Regarding `O=c1[nH]c2nccnc2c(O)c1-c1c(Cl)ccc(Cl)c1Cl` [Compound A21], the “damage to plant … (AMARE)” value in assay [1] is 7. Further, the “damage to plant, Stellaria media (STEME)” value in the assay with Stellaria media (STEME) came to 3. The “damage to plant, Solanum nigrum (SOLNI)” value with Solanum nigrum (SOLNI) was determined as 5. In addition, the “damage to plant … (NAAOF)” value in assay [2] came to 6.

Consider `O=c1[nH]c2ncc(Br)nc2c(O)c1-c1c(Cl)cccc1Cl` [Compound A26], for which the “damage to plant … (AMARE)” value in assay [1] stood at 0. In addition, the “damage to plant, Stellaria media (STEME)” value in the assay on Stellaria media (STEME) was 2. In addition, the “damage to plant, Solanum nigrum (SOLNI)” value in the assay with Solanum nigrum (SOLNI) came to 0. For the same molecule, the “damage to plant … (NAAOF)” value in assay [2] stood at 0.

As for `O=c1[nH]c2ncc(Cl)nc2c(O)c1-c1c(Cl)cccc1Cl` [Compound A27], in assay [1], the “damage to plant … (AMARE)” value is 0. Moreover, the “damage to plant, Stellaria media (STEME)” value in the assay on Stellaria media (STEME) amounted to 2. Further, the “damage to plant, Solanum nigrum (SOLNI)” value in the assay with Solanum nigrum (SOLNI) was 0. In addition, in assay [2], the “damage to plant … (NAAOF)” value worked out at 0.

Consider `O=c1[nH]c2nccnc2c(O)c1-c1cc(Cl)cc(Cl)c1Cl` [Compound A28], for which, in assay [1], the “damage to plant … (AMARE)” value was determined as 2. The “damage to plant, Stellaria media (STEME)” value with Stellaria media (STEME) stood at 2. Further, the “damage to plant, Solanum nigrum (SOLNI)” value in the assay with Solanum nigrum (SOLNI) was determined as 0. Also, in assay [2], the “damage to plant … (NAAOF)” value was 3.

In the case of `O=c1[nH]c2nccnc2c(O)c1-c1ccc2ccccc2c1` [Compound A29], in assay [1], the “damage to plant … (AMARE)” value was 2. Further, the “damage to plant, Stellaria media (STEME)” value with Stellaria media (STEME) came to 3. Besides, in the assay with Solanum nigrum (SOLNI), the “damage to plant, Solanum nigrum (SOLNI)” value is given as 2. Besides, the “damage to plant … (NAAOF)” value in assay [2] amounted to 0.

For `Cc1cc(C)c(-c2c(O)c3nccnc3[nH]c2=O)c(C)c1` [Compound A30], the “damage to plant … (AMARE)” value in assay [1] amounted to 7. Besides, the “damage to plant, Stellaria media (STEME)” value with Stellaria media (STEME) is 4. Also, the “damage to plant, Solanum nigrum (SOLNI)” value with Solanum nigrum (SOLNI) stood at 0. Further, the “damage to plant … (NAAOF)” value in assay [2] was determined as 3.

Consider `O=c1[nH]c2nccnc2c(O)c1-c1c(Cl)cccc1C(F)(F)F` [Compound A31], for which the “damage to plant … (AMARE)” value in assay [1] is 5. In addition, the “damage to plant, Stellaria media (STEME)” value in the assay with Stellaria media (STEME) is 3. Further, in the assay with Solanum nigrum (SOLNI), the “damage to plant, Solanum nigrum (SOLNI)” value is given as 0. Also, in assay [2], the “damage to plant … (NAAOF)” value was 3.

Take `O=c1[nH]c2nccnc2c(O)c1-c1cccc(C(F)(F)F)c1Cl` [Compound A32]: the “damage to plant … (AMARE)” value in assay [1] was found to be 0. The “damage to plant, Stellaria media (STEME)” value with Stellaria media (STEME) was found to be 0. Further, the “damage to plant, Solanum nigrum (SOLNI)” value in the assay on Solanum nigrum (SOLNI) was 2. Moreover, in assay [2], the “damage to plant … (NAAOF)” value came to 0.

Turning to `CCn1c(=O)c(-c2ccccc2OC(F)(F)F)c(O)c2nccnc21` [Compound D5], the “damage to plant … (AMARE)” value in assay [1] is reported as 3. Further, the “damage to plant, Stellaria media (STEME)” value in the assay on Stellaria media (STEME) amounted to 6. Moreover, the “damage to plant … (NAAOF)” value in assay [2] was 7.
